Tests used:
B16.F10 tumors = test: Intratumoral treatment of established B16.F10 tumors; type: in vivo, mouse; details: for effect on tumor growth: WT C57BL/6 mice, three IT injections over a one-week period; for injection site reactogenicity: three IT injections
Method: (§1) In vivo tumor experiments. 10^6 of B16-SIY tumor cells, 5×10^4 B16.F10 tumor cells, 10^5 4T1 and CT26, or 10^6 other tumor cells were injected s.c. in 100 μl DPBS or HBSS on the right flank of mice. Following tumor implantation, mice were randomized into treatment groups. […] Measurements of tumors were performed twice per week using calipers, and the tumor volume was calculated with the formula: V=(length×width^2)/2. In some experiments, tumor-free survivors were rechallenged with tumor cells on the opposite flank several weeks after the injection of the primary tumor. Naïve mice were used as controls. For the contralateral experiments, mice were implanted on both flanks and only one tumor was treated. For the B16 melanoma lung metastasis experiments, mice were implanted on the flank with 5×10^4 cells B16.F10 on day 0, and then injected intravenously with 1×10^5 cells on day 7. Lungs were harvested on day 28. Administration of compounds, measurements of tumors and counting of lung tumors were performed in a blinded fashion.

[1] = test system: five hSTING alleles (WT, REF, HAQ, AQ and Q); test: IFN-β luciferase reporter assay in HEK 293T cells expressing hSTING variants; type: cell-based, human; details: 10 μM CDN, 6 hours
Method: (§2) Luciferase Assay. […] After 20 min, stimulation mixtures were removed and normal media was added. After a total of 6 hours, cell lysates were prepared and reporter gene activity measured using the Dual Luciferase Assay System (Promega) on a Spectramax M3 luminometer.

[2] = test system: murine bone marrow macrophages (BMMs); test: qRT-PCR of IFN-β and cytokines in bone marrow macrophages stimulated with CDNs; type: cell-based, mouse; details: WT C57BL/6 BMMs, 5 μM, 6 hours; compared to ML-cGAMP, poly I:C and LPS on a molar equivalent basis
Method: WT BMM were stimulated with CDN at 5 μM in HBSS with the addition of Effectene (Qiagen) transfection reagent (per kit protocol). […] After a 6 hr incubation, cells were harvested and assessed by real-time qRT-PCR for gene expression of IFN-β1, MCP-1, TNF-α) and IL-6 using the PrimePCR RNA purification and cDNA analysis system, and run on the CFX96 gene cycler (BioRad).

CT26 colon carcinoma = test: Intratumoral treatment of CT26 colon carcinoma; type: in vivo, mouse
Method: as §1

[3] = test system: CT26 rejection antigen AH1; test: IFN-γ ELISPOT against AH1 in CT26-bearing mice; type: in vivo, mouse; details: 21 days post-implantation
Method: IFN-γ ELISPOT and SIY-pentamer staining. […] […] Spots were developed using the BD mouse IFN-γ kit according to the manufacturer's instructions and the number of spots was measured using an Immunospot Series 3 Analyzer and analyzed using ImmunoSpot software (Cellular Technology Ltd). For SIY-pentamer staining, splenocytes were preincubated for 15 min with anti-CD16/32 monoclonal antibody (93) to block potential nonspecific binding, and labeled with PE-MHC class I pentamer (Proimmune) consisting of murine H-2K^b complexed to […] (SIY) peptide, anti-TCRβ-AF700 (H57-597), anti-CD8-Pacific Blue (53-6.7), anti-CD4-Pacific Orange (RM4-5) (all antibodies from BioLegend) and the Fixable Viability Dye eFluor 450 (eBioscience). Stained cells were analyzed using LSR II cytometer with FACSDiva software (BD). Data analysis was conducted with FlowJo software (Tree Star).

4T-1 tumors = test: Intratumoral treatment of 4T-1 tumors; type: in vivo, mouse
Method: as §1

B16.F10 lung metastases = test: B16 melanoma lung metastasis experiment; type: in vivo, mouse; details: flank tumor treated IT, ML RR-S2 CDA 50 μg versus DMXAA 150 μg
Method: as §1

[4] = test system: STING pathway (TBK1, IRF3 phosphorylation); test: Western blot of pTBK1 and pIRF3 in macrophages and BM-DCs after STING agonist; type: cell-based, mouse; details: WT macrophages; DMXAA 50 μg/ml or ML RR-S2 CDA 50 μM
Method: DMXAA for the same time-points. Proteins were extracted with Triton-X buffer (150 mM sodium chloride, 50 mM Tris, 1% Triton-X, pH 8.0) with proteinase inhibitors (Thermo scientific) and phosphatase inhibitors (Sigma). 30 μg of protein was electrophoresed in 10% SDS-PAGE gels and transferred onto Immobilon-FL membranes (Millipore). Blots were incubated with antibodies specific for phosphorylated TBK1 (Ser172), phosphorylated IRF3 (Ser396), total TBK1, STING and GAPDH (Cell Signaling) or total IRF3 (Invitrogen). Proteins from HEK 293T lines stably expressing STING were extracted with M-PER (Thermo Scientific). 6 μg of protein was loaded onto a 4-12% MES NuPAGE gel (Life Technologies), transferred to nitrocellulose, and probed with anti-HA antibody (Santa Cruz). Anti-rabbit IRDye 680RD label secondary antibody was used for visualization of bands with the Odyssey Imaging system (LI-COR).

hSTING^REF = molecular target: T1, hSTING^REF (Homo sapiens, UniProt Q86WV6); test: IFN-β luciferase reporter assay in HEK 293T cells expressing hSTING REF; type: cell-based; details: 10 μM CDN, 6 hours
T1 construct: expressing each of the full length hSTING variants; expressed in transfected cells; host or cells: HEK 293T (deficient in endogenous STING), MSCV2.2 retroviral transduction
T1 sequence (Q86WV6 whole entry): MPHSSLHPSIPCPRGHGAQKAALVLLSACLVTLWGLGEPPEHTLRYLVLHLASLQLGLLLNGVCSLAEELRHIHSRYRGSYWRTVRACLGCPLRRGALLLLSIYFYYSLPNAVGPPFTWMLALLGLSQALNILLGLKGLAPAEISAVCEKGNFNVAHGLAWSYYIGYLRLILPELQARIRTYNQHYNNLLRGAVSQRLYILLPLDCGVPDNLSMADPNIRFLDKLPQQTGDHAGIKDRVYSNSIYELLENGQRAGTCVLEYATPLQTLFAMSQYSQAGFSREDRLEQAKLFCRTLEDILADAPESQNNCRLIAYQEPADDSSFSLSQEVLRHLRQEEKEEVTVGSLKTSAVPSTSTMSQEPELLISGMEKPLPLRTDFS
Method: as §2

[5] = BALB/c mice, three IT doses of 50 μg
[6] = bilateral tumors, IT injection into one tumor
[7] = mice cured of their primary tumor

Nc1nc2c(ncn2C2OC3COP(=O)(O)OC4C(O)C(COP(=O)(O)OC3C2O)OC4n2cnc3c(=O)[nH]c(N)nc32)c(=O)[nH]1 (stereo not shown) [ML-CDG]
effect on tumor growth (B16.F10 tumors): modest effects on tumor growth

Nc1nc2c(ncn2[C@@H]2O[C@@H]3CO[P@@](=O)(S)O[C@@H]4[C@H](O)[C@@H](CO[P@@](=O)(S)O[C@H]3[C@H]2O)O[C@H]4n2cnc3c(=O)[nH]c(N)nc32)c(=O)[nH]1 [ML RR-S2 CDG]
IFN-β reporter activation [1]: potently activated all five hSTING alleles | efficacy at lower dose levels (B16.F10 tumors; lower dose levels): not efficacious | therapeutic index (B16.F10 tumors; mouse, in vivo): narrow therapeutic index | injection site reactogenicity (B16.F10 tumors): reactogenic | expression of pro-inflammatory cytokines (IFN-β) [2]: highest expression of pro-inflammatory cytokines

Nc1ncnc2c1ncn2[C@@H]1O[C@@H]2COP(O)(=S)O[C@@H]3C(O)[C@@H](COP(O)(=S)O[C@H]2[C@H]1O)O[C@H]3n1cnc2c(N)ncnc21 (stereo partly shown) [ML RR-S2 CDA, dithio-(Rp, Rp)-[cyclic[A(2′,5′)pA(3′,5′)p]]]
tumor regression (CT26 colon carcinoma; [5]): significant and durable tumor regression | regression of the contralateral untreated tumor (CT26 colon carcinoma; [6]): significant regression of the contralateral untreated tumor | resistance to re-challenge (CT26 colon carcinoma; [7]): completely resistant to re-challenge | immune responses against AH1 (IFN-γ ELISPOT) [3]: improved immune responses | tumor regression (4T-1 tumors; [5]): significant and durable tumor regression | regression of the contralateral untreated tumor (4T-1 tumors; [6]): significant regression of the contralateral untreated tumor | resistance to re-challenge (4T-1 tumors; [7]): completely resistant to re-challenge | inhibition of growth of distant lung metastases (B16.F10 lung metastases): more significant inhibition of growth of distant lung metastases than DMXAA | phosphorylation of TBK1 and IRF3 [4]: induce phosphorylation of TBK1 and IRF3 | IFN-β reporter activation [1]: potently activated all five hSTING alleles | potency compared to CpG-based TLR9 agonists and multiple other TLR agonists (B16.F10 tumors; given IT at the same doses (50 μg)): significantly increased potency | injection site reactogenicity (B16.F10 tumors): no injection site reactogenicity | expression of pro-inflammatory cytokines (IFN-β) [2]: highest expression of pro-inflammatory cytokines

Nc1ncnc2c1ncn2C1OC2COP(=O)(O)OC3C(O)C(COP(=O)(O)OC2C1O)OC3n1cnc2c(N)ncnc21 (stereo not shown) [ML-CDA]
effect on tumor growth (B16.F10 tumors): modest effects on tumor growth

Nc1nc2c(ncn2[C@@H]2O[C@@H]3COP(=O)(O)O[C@H]4[C@@H](O)[C@H](n5cnc6c(=O)[nH]c(N)nc65)O[C@@H]4COP(=O)(O)O[C@H]3[C@H]2O)c(=O)[nH]1 [CDG]
IFN-β reporter responsiveness (hSTING^REF): responded poorly

Nc1ncnc2c1ncn2[C@@H]1O[C@@H]2COP(=O)(O)O[C@H]3[C@@H](O)[C@H](n4cnc5c(N)ncnc54)O[C@@H]3COP(=O)(O)O[C@H]2[C@H]1O [CDA]
IFN-β reporter responsiveness (hSTING^REF): responded poorly

— patent US20180028553A1, “USE OF STING AGONIST AS CANCER TREATMENT” (The University of Chicago, priority 2013, published 2018)
